Key:
Format in all cases: cell-based
E. coli strain UZ_TEM104 = conditions: peptide alone
Description: In order to generate a synthetic amyloid peptide capable of inactivating the TEM-1 beta-lactamase enzyme by capitalizing on its aggregation propensity, we applied a previously developed design pattern for synthetic aggregating sequences. This involves a tandem repeat of the APR, each instance flanked by charged amino acids for solubility and separated by a short peptide linker^19,20,23 (FIG. 2G). Previous work has shown that good bacterial uptake can be achieved using one positively charged arginine residue on the N-terminal side of each APR in the tandem and two arginine residues on the C-terminal side. This has the additional benefit of reducing the self-aggregation of the peptides and increasing their solubility prior to target engagement. As before, we employed a single Pro residue as a linker between the APRs and focused on an APR length of seven, extending shorter APRs to this length by incorporating flanking amino acids unless they were obvious aggregation breakers (Arg, Lys, Asp, Glu or Pro, see Table 1). We obtained these peptides from solid phase synthesis, followed by HPLC purification to a purity judged by reverse phase chromatography of at least 90% (Genscript).
Determination of MIC values using the broth microdilution in the 96-well plate (BD Biosciences, Belgium) according to the EUCAST guideline, which was performed in 96-well polystyrene flat bottom microtiter plates (BD Biosciences). Briefly, a single colony was inoculated into 5 mL Difco™ Mueller Hinton Broth (BD Biosciences Ref 275730) and grown to the end-exponential growth phase in a shaking incubator at 37° C. Cultures were subsequently diluted to an MacFarland (0.5 optical density) then the culture was diluted to reach 10^6 CFU/mL in fresh MHB medium. 50 μl of different concentration of peptides ranging from 128 to 2 μg/mL were serially diluted to the sterile 96-well plate in MHB. 50 μL of the diluted bacteria in MHB were pipetted into 96-well plates to reach the final volume of 100 μL. The bacteria grown with the maximum concentration of carrier and medium were considered as positive and negative controls, respectively. The plates were statically incubated overnight at 37° C. to allow bacterial growth. OD was measured at 590 nm a multipurpose ultraviolet-visible plate reader, and the absorbance of the growth bacteria was measured using absorbance reader. Bacterial growth was also visually inspected and agreed well with the OD reading.

[1] = tested on: E. coli strains carrying ESBL mutants of TEM; experiment: checkerboard assay (FICI), TEM3.2 versus ampicillin
Description: FIGS. 2A-2M. (FIG. 2A) TEM mutations and their effects on stability (total energy) as predicted by FoldX. […] Dashed line indicates a total energy difference of 0.5 kcal/mol, the FoldX cut-off above which mutations are considered to be destabilizing. (FIG. 2B) Barplot mapping mutations in (FIG. 2A) to the TEM sequence and indicating occurrence. […] The bar heights correspond to the number of times a mutation occurs across different TEM variants (right-hand y-axis). The color coding is identical to that in (FIG. 2A). Red line indicates the TANGO scores (indicated on the left-hand y-axis), with peaks corresponding to APRs. […]
Moreover, the core sequence of peptide TEM3.0 also occurs in the structurally related SHV β-lactamase (FIG. 2E). […] To quantify the synergy between these four peptides and penicillin G, we performed a so-called checkerboard assay, which allows to compare the activity of two test compounds co-incubated (here peptide and a beta-lactam antibiotic), to their individual activities in isolation. The result from the assay is quantified as the Fractional Inhibitory Concentration Index (FICI), and it is generally accepted that values below 0.5 indicate synergistic effects between the compounds. […] We evaluated the synergy of the peptides with penicillin G in clinical E. coli isolates carrying the TEM (FIG. 2I) or SHV enzymes (FIG. 2J). […]

[2] = tested on: primary Human Umbilical Vein Endothelial Cells (HUVEC)

Substance	MIC peptide (E. coli strain UZ_TEM104)	synergy with ampicillin (FICI) [1]	cytotoxicity (Cell Titer Blue) [2]
Ac-RLTAFLHNRRPRLTAFLHNRR-NH2 [TEM3.0]	>100 µg/mL	–	–
Ac-RLTAFLHNRRPRLTAFLRQRR-NH2 [TEM3.2]	–	synergy	not cytotoxic

From patent US20240165196A1, “Beta-Lactamase Inhibitors” (VIB VZW, priority 2021, published 2024)
